From US20230045421A1 (priority 2018, published 2023) come the findings set out here.

This test deals with HBV rcDNA. The test can be described thus: HepDE19 assay with bDNA quantitation of HBV rcDNA. The test is classed as cell-based, hepatitis B virus. An outline of the steps: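 HepDE19 cells (HepG2-derived, Tet-regulated HBV replication) were deprived of tetracycline and then exposed to compounds for 7 days at 37 °C in 0.5% DMSO, 8-point titration from 25 μM. rcDNA was quantified by bDNA and EC50/EC90 came from 4-parameter fits. CC50 was measured by CellTiter-Glo ATP content on replicate plates after 4 days.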

[1] abbreviates: Hepatitis B virus, HepDE19, HepDE19 assay, inhibition of formation of rcDNA, read-out: DE-19bDNA EC50.
Setting [2] is: HepDE19 assay, inhibition of formation of rcDNA, read-out: DE-19bDNA EC50.
The mark [3] stands for this setting: HepDE19 assay, inhibition of formation of relaxed circular DNA (rcDNA), bDNA quantitation, read-out: DE-19bDNA EC50.

Like-named read-outs stand apart in the source and are kept apart here.

As a reminder, the EC50 is the concentration at which the effect is half-maximal. In the case of `CC(C)CN(C(=O)Nc1ccc(F)c(Cl)c1)C(C)c1cn(CC(F)(F)F)c(=O)c2ccccc12` (racemic) [Compound 229, 3-(3-Chloro-4-fluorophenyl)-1-isobutyl-1-(1-(1-oxo-2-(2,2,2-trifluoroethyl)-1,2-dihydroisoquinolin-4-yl)ethyl)urea], the EC50 under setting [1] was determined as 0.07 µM. Turning to `CC(c1c[nH]c(=O)c2cc(F)c(F)cc12)N(C)C(=O)Nc1cc(Cl)cc(Cl)c1` (single isomer, unassigned) [Compound 417, 3-(3,5-Dichlorophenyl)-1-(1-(6,7-difluoro-1-oxo-1,2-dihydroisoquinolin-4-yl)ethyl)-1-methylurea], the EC50 (read-out: DE-19bDNA EC50, HepDE19 assay, inhibition of formation of relaxed circular DNA (rcDNA), bDNA quantitation) came to 0.14 µM. Regarding `CC(c1cn(C(C)C)c(=O)c2ccccc12)N(C)C(=O)Nc1ccc(F)c(Cl)c1` (single isomer, unassigned) [Compound 188, 3-(3-Chloro-4-fluorophenyl)-1-(1-(2-isopropyl-1-oxo-1,2-dihydroisoquinolin-4-yl)ethyl)-1-methylurea], under setting [2], the EC50 was determined as 1.8 µM.

With `CC(c1c[nH]c(=O)c2c(F)c(F)ccc12)N(C)C(=O)Nc1ccnc(Cl)c1` (single isomer, unassigned) [Compound 454, 3-(2-Chloropyridin-4-yl)-1-(1-(7,8-difluoro-1-oxo-1,2-dihydroisoquinolin-4-yl)ethyl)-1-methylurea], under “Hepatitis B virus, HepDE19, HepDE19 assay, inhibition of formation of relaxed circular DNA (rcDNA), bDNA quantitation, read-out: DE-19bDNA EC50”, the EC50 stood at 0.17 µM. In the case of `CCN(C(=O)Nc1ccc(F)c(Cl)c1)C(C)c1c[nH]c(=O)c2ccccc12` (single isomer, unassigned) [Compound 25, 3-(3-Chloro-4-fluorophenyl)-1-ethyl-1-(1-(1-oxo-1,2-dihydroisoquinolin-4-yl)ethyl)urea], the EC50 under setting [2] was found to be 0.02 µM. Consider `CC(c1cnc(N)c2ccccc12)N(C)C(=O)Nc1ccc(F)c(Cl)c1` (single isomer, unassigned) [Compound 239, 1-(1-(1-Aminoisoquinolin-4-yl)ethyl)-3-(3-chloro-4-fluorophenyl)-1-methylurea], for which, under setting [2], the EC50 is 0.21 µM. In the case of `CCN(C(=O)Nc1ccc(F)c(Cl)c1)C(c1c[nH]c(=O)c2ccccc12)C1CC1` (single isomer, unassigned) [Compound 49, 3-(3-Chloro-4-fluorophenyl)-1-(cyclopropyl(1-oxo-1,2-dihydroisoquinolin-4-yl)methyl)-1-ethylurea], the EC50 (read-out: DE-19bDNA EC50, HepDE19 assay, inhibition of formation of rcDNA) came out at 0.5 µM. `CC(c1c[nH]c(=O)c2cc(F)c(F)cc12)N(C)C(=O)NCc1ccc(F)c(F)c1` (single isomer, unassigned) [Compound 476, 1-(1-(6,7-Difluoro-1-oxo-1,2-dihydroisoquinolin-4-yl)ethyl)-3-(3,4-difluorobenzyl)-1-methylurea]: under setting [3], the EC50 is 0.43 µM. Same read-out and setting: the result for `CC(c1c[nH]c(=O)c2c(F)cccc12)N(CCCO)C(=O)Nc1ccc(F)c(Cl)c1` (single isomer, unassigned) [Compound 366, 3-(3-Chloro-4-fluorophenyl)-1-(1-(8-fluoro-1-oxo-1,2-dihydroisoquinolin-4-yl)ethyl)-1-(3-hydroxypropyl)urea] reads 11 µM. Turning to `CCN(C(=O)Nc1ccc(F)c(Cl)c1)C(c1c[nH]c(=O)c2ccccc12)C(C)C` (single isomer, unassigned) [Compound 54, 3-(3-Chloro-4-fluorophenyl)-1-ethyl-1-(2-methyl-1-(1-oxo-1,2-dihydroisoquinolin-4-yl)propyl)urea], where the note is “Hepatitis B virus, HepDE19, read-out: DE-19bDNA EC50 (μM), HepDE19 assay, inhibition of formation of rcDNA”, the EC50 was found to be 20 µM. Take `CC(c1cn(C)c(=O)c2c(F)cccc12)N(C)C(=O)Nc1ccc(F)c(Cl)c1` (single isomer, unassigned) [Compound 358, 3-(3-Chloro-4-fluorophenyl)-1-(1-(8-fluoro-2-methyl-1-oxo-1,2-dihydroisoquinolin-4-yl)ethyl)-1-methylurea]: under setting [3], the EC50 is 5.9 µM.

Consider `CC(c1c[nH]c(=O)c2c(F)c(F)ccc12)N(C)C(=O)NCc1ccc(F)c(Cl)c1` (single isomer, unassigned) [Compound 497, 3-(3-Chloro-4-fluorobenzyl)-1-(1-(7,8-difluoro-1-oxo-1,2-dihydroisoquinolin-4-yl)ethyl)-1-methylurea], for which the EC50 under setting [3] came to 0.26 µM.

Regarding `CC(C)CN(C(=O)Nc1ccc(F)c(Cl)c1)C(C)c1c[nH]c(=O)c2ccccc12` (racemic) [Compound 135, 3-(3-chloro-4-fluorophenyl)-1-isobutyl-1-(1-(1-oxo-1,2-dihydroisoquinolin-4-yl)ethyl)urea], the EC50 under setting [1] turned out to be 0.01 µM. As for `CC(c1c[nH]c(=O)c2ccccc12)N(CCCCO)C(=O)Nc1ccc(F)c(Cl)c1` (single isomer, unassigned) [Compound 150, 3-(3-Chloro-4-fluorophenyl)-1-(4-hydroxybutyl)-1-(1-(1-oxo-1,2-dihydroisoquinolin-4-yl)ethyl)urea], under setting [2], the EC50 worked out at 0.01 µM.

On to `CC(C)CN(C(=O)Nc1ccc(F)c(Cl)c1)C(C)c1c[nH]c(=O)c2ccccc12` (single isomer, unassigned) [Compound 143, 3-(3-chloro-4-fluorophenyl)-1-isobutyl-1-(1-(1-oxo-1,2-dihydroisoquinolin-4-yl)ethyl)urea], for which the EC50 under setting [2] was 0.85 µM.

For `Cc1cc(NC(=O)N(C)C(C)c2c[nH]c(=O)c3cc(F)c(F)cc23)ccc1F` (single isomer, unassigned) [Compound 426, 1-(1-(6,7-Difluoro-1-oxo-1,2-dihydroisoquinolin-4-yl)ethyl)-3-(4-fluoro-3-methylphenyl)-1-methylurea], the EC50 under setting [3] is 0.11 µM. As to `CC(c1c[nH]c(=O)c2cc(Cl)ccc12)N(C)C(=O)Nc1ccc(F)c(Cl)c1` (racemic) [Compound 271, 1-(1-(7-Chloro-1-oxo-1,2-dihydroisoquinolin-4-yl)ethyl)-3-(3-chloro-4-fluorophenyl)-1-methylurea], the EC50 under setting [1] turned out to be 0.2 µM. Regarding `CC(c1c[nH]c(=O)c2cc(F)c(F)cc12)N(C)C(=O)Nc1cc(F)c(F)c(F)c1` (single isomer, unassigned) [Compound 415, 1-(1-(6,7-Difluoro-1-oxo-1,2-dihydroisoquinolin-4-yl)ethyl)-3-(3,4,5-trifluorophenyl)-1-methylurea], under setting [3], the EC50 is 0.021 µM. Turning to `CC(c1c[nH]c(=O)c2ccccc12)N(CCCN)C(=O)Nc1ccc(F)c(Cl)c1` (single isomer, unassigned) [Compound 164, 1-(3-Aminopropyl)-3-(3-chloro-4-fluorophenyl)-1-(1-(1-oxo-1,2-dihydroisoquinolin-4-yl)ethyl)urea], the EC50 under setting [1] is 12 µM. Take `CC(c1c[nH]c(=O)c2ccccc12)N(CCC#N)C(=O)Nc1ccc(F)c(Cl)c1` (single isomer, unassigned) [Compound 112, 3-(3-Chloro-4-fluorophenyl)-1-(2-cyanoethyl)-1-(1-(1-oxo-1,2-dihydroisoquinolin-4-yl)ethyl)urea]: the EC50 under setting [2] came to 2.8 µM. As to `CC(c1c[nH]c(=O)c2ccccc12)N(C[C@@H]1CCCO1)C(=O)Nc1ccc(F)c(Cl)c1` (single isomer, unassigned) [Compound 160], the EC50 under setting [2] amounted to 23 µM. For the compound `CC(c1cn(CC(F)(F)F)c(=O)c2ccccc12)N(C)C(=O)Nc1ccc(F)c(Cl)c1` (racemic) [Compound 228, 3-(3-Chloro-4-fluorophenyl)-1-methyl-1-(1-(1-oxo-2-(2,2,2-trifluoroethyl)-1,2-dihydroisoquinolin-4-yl)ethyl)urea], the EC50 under setting [1] is 0.78 µM. For the compound `CC(c1cnc(OCc2ncn(C)n2)c2ccccc12)N(C)C(=O)Nc1ccc(F)c(Cl)c1` (single isomer, unassigned) [Compound 132, 3-(3-Chloro-4-fluorophenyl)-1-methyl-1-(1-(1-((1-methyl-1H-1,2,4-triazol-3-yl)methoxy)isoquinolin-4-yl)ethyl)urea], under setting [2], the EC50 was 0.06 µM. `CC(c1c[nH]c(=O)c2c(F)c(F)ccc12)N(C)C(=O)Nc1cccnc1` (single isomer, unassigned) [Compound 450, 1-(1-(7,8-Difluoro-1-oxo-1,2-dihydroisoquinolin-4-yl)ethyl)-1-methyl-3-(pyridin-3-yl)urea]: for the setting “Hepatitis B virus, HepDE19, read-out: DE-19bDNA EC50 (μM), HepDE19 assay, inhibition of formation of relaxed circular DNA (rcDNA), bDNA quantitation”, the EC50 turned out to be 5.4 µM. With `CC(c1c[nH]c(=O)c2c(F)cc(F)cc12)N(C)C(=O)Nc1ccc(F)c(Cl)c1` (single isomer, unassigned) [Compound 368, 3-(3-Chloro-4-fluorophenyl)-1-(1-(6,8-difluoro-1-oxo-1,2-dihydroisoquinolin-4-yl)ethyl)-1-methylurea], the EC50 under setting [3] is 2.5 µM. On to `CC(C)CN(C(=O)Nc1ccc(F)c(Cl)c1)C(C)c1cn(C)c(=O)c2cc(F)c(F)cc12` (single isomer, unassigned) [Compound 342, 3-(3-Chloro-4-fluorophenyl)-1-(1-(6,7-difluoro-2-methyl-1-oxo-1,2-dihydroisoquinolin-4-yl)ethyl)-1-isobutylurea], for which the EC50 under setting [3] amounted to 0.62 µM. Turning to `COc1ncc(CN(CCO)C(=O)Nc2ccc(F)c(Cl)c2)c2ccccc12` [Compound 21, 3-(3-Chloro-4-fluorophenyl)-1-(2-hydroxyethyl)-1-((1-methoxyisoquinolin-4-yl)methyl)urea], the EC50 under setting [1] was 18 µM. Take `CC(c1cnc(NCCN)c2ccccc12)N(C)C(=O)Nc1ccc(F)c(Cl)c1` (single isomer, unassigned) [Compound 250, 1-(1-(1-((2-Aminoethyl)amino)isoquinolin-4-yl)ethyl)-3-(3-chloro-4-fluorophenyl)-1-methylurea]: the EC50 under setting [2] was 1.5 µM.
